The numbers were not newly measured in article PMC5040077 (The Korean Journal of Parasitology, 2016), which cites them from elsewhere.

In series [1] the test system is Leishmania chagasi promastigotes.
Series [2] concerns Trypanosoma cruzi trypomastigotes.
For a further series, the system named is HL-60. Conditions: cancer cell line HL-60.
The subject of another series is SF-295. Particulars: cancer cell line SF-295.
The next series concerns MDA-MB-435. Conditions: cancer cell line MDA-MB-435.
The subject of a further series is HCT-8. Conditions: cancer cell line HCT-8.

As for `C[C@]12CC[C@H](O)C[C@@]1(O)CC[C@@H]1[C@@H]2CC[C@]2(C)[C@@H](c3ccc(=O)oc3)CC[C@]12O` [compound 1, telocinobufagin], the “biological activity against Leishmania chagasi promastigotes” value in series [1] is reported as “biological activity”. Moreover, the “activity against Trypanosoma cruzi trypomastigotes” value in series [2] was “only hellebrigenin was active”. Besides, the “cytotoxicity against HL-60” value in the series with HL-60 is on record as “low cytotoxicity”. For the same molecule, in the series on SF-295, the “cytotoxicity against SF-295” value is reported as “low cytotoxicity”. The “cytotoxicity against MDA-MB-435” value in the series on MDA-MB-435 is reported as “low cytotoxicity”. Also, the “cytotoxicity against HCT-8” value in the series on HCT-8 is “low cytotoxicity”.

Consider `C[C@]12CC[C@H]3[C@@H](CC[C@]4(O)C[C@@H](O)CC[C@]34C=O)[C@@]1(O)CC[C@@H]2c1ccc(=O)oc1` [hellebrigenin, reference compound], for which the “biological activity against Leishmania chagasi promastigotes” value in series [1] was “biological activity”. For the same molecule, in series [2], the “activity against Trypanosoma cruzi trypomastigotes” value is “active”.
